US20150313896A1, “METHOD FOR TREATING CELL PROLIFERATION DISORDERS” (Galderma Research & Development, priority 2013, published 2015)
Structures can show the parent of a compound that is named as a salt. Where two headings read alike, the source gives them in different places.

Key:
[1] = tested on: SKH1 mice; experiment: UVB-induced epidermal hyperplasia: epidermis thickness (H&E); assay type: in vivo; conditions: for Decrease of the epidermal thickness: post-treatment schedule (immediately after UVB, then twice 23 h apart)
Method: (§1) SKH1 mice were treated and exposed to UVB irradiation. The back skin of the mice was exposed to 120 mJ/cm^2 UVB using the Biospectra system equipped with UVB sunlamps with a maximum emission peak at 312 nm. Irradiations were performed under isoflurane gaseous anesthesia. Mice were treated with vehicle (PEG400/EtOH/PHY (30/20/50) p/p) or brimonidine tartrate at 0.2% or 2%, by weight, administrated by topical application (100 μl) on a 10 cm^2 area on the upper part of the back using a micropipette. The area is located on the upper part of the back to prevent the animals from liking themselves. Three applications were performed according to the following two treatment schedules:
(§2) (a) pre-treatment: one application 1 hour prior to UVB irradiation, followed by two more applications 23 hours apart;
(§3) (b) post-treatment: one application immediately following the UVB irradiation, followed by two more applications 23 hours apart.
(§4) A compound reference, i.e., an EGFR inhibitor at 4%, by weight, in EtOH/H2O (76/24) was also administrated according to the pre-treatment schedule.
One hour after the third topical treatment and one hour before euthanasia, mice received an intraperitoneal (i.p.) injection of 5-ethynyl-2′-deoxyuridine (EdU) at 100 mg/kg. After mouse euthanasia using cervical dislocation, the back skin was removed and immediately fixed in formol. The formol-fixed skin samples were embedded in paraffin and then submitted to immunohistological studies for epidermal thickness and EdU detection.
For epidermal thickness, two sections of 7 μm per animal were stained in hematoxylin and eosin (H&E) stain. Skin histology and the epidermis thickness were analyzed using image analysis (mScope 3.9, Aurora mScope) on scanned slide pictures (NanoZoomer C9600-12, Hamamatsu Photonics K.K).
Data were analyzed using unpaired t test for validation of the UVB irradiation and one-way ANOVA with Dunnett's multiple comparison test for the analysis of the treatment effect (Prism 6; GraphPad Software Inc., San Diego, Calif., USA). A p value of less than 0.05 was regarded as significant.

[2] = tested on: SKH1 mice; experiment: UVB-induced epidermal hyperplasia: EdU detection of proliferating keratinocytes; assay type: in vivo
Method: as §1, §2, §3, §4
One hour after the third topical treatment and one hour before euthanasia, mice received an intraperitoneal (i.p.) injection of 5-ethynyl-2′-deoxyuridine (EdU) at 100 mg/kg. After mouse euthanasia using cervical dislocation, the back skin was removed and immediately fixed in formol. […]
For EdU detection, two or three sections of 7 μm per animal were submitted to EdU staining. […] Nuclei were also stained with 4′,6-diamidino-2-phenylindole (DAPI) diluted at 5 mg/mL in Vectashield Hard Set Mounting medium for Fluorescence (ref: H-1400 Vector Laboratories). The number of keratinocytes stained with Alexa Fluor® 594 was counted from digital images (NanoZoomer C9600-12, Hamamatsu Photonics K.K) and the epidermis length of each section determined using an in house dedicated tool.
Data were analyzed using unpaired t test for validation of the UVB irradiation and one-way ANOVA with Dunnett's multiple comparison test for the analysis of the treatment effect (Prism 6; GraphPad Software Inc., San Diego, Calif., USA). […]

[3] = tested on: Albino hairless SKH1-hr mice; conditions: for Skin Thickening: number of mice with observation / Skin Thickening: total number of observations: 40 weeks
Method: Albino hairless SKH1-hr mice (36/sex/group) were treated for 40 weeks with UVR and brimonidine gel or vehicle according to the design in table 11. […] Topical treatments were performed approximately one hour before UVR on Monday, Wednesday and Friday of each week and approximately one hour after UVR Tuesday and Thursday of each week.
*Monday, Wednesday and Friday of each week: exposure to UVR approximately one hour after test item application. Tuesday and Thursday of each week: exposure to UVR approximately one hour before test item application.
The UVR exposure was 600 RBU/week for all test groups in the table.

SMILES: Brc1c(NC2=NCCN2)ccc2nccnc12 [brimonidine tartrate, (5-Bromo-quinoxalin-6-yl)-(4,5-dihydro-1H-imidazol-2-yl)-amine]
- Decrease of the epidermal thickness ([1]; 0.2% (w/w) topical): −16%
- Inhibition of UVB-induced acanthosis (epidermis thickness) ([1]; 0.2% (w/w) topical, pre-treatment schedule): no effect
- Decrease of the epidermal thickness ([1]; 2% (w/w) topical): −32%
- Inhibition of UVB-induced acanthosis (epidermis thickness) ([1]; 2% (w/w) topical, pre-treatment schedule (1 h before UVB 120 mJ/cm^2, then twice 23 h apart)): −23%
- Reduction of the number of EdU positive cells ([2]; 0.2% topical, post-treatment schedule): 25%
- Reduction of the number of EdU positive cells ([2]; 2% topical, post-treatment schedule): −64%
- Reduction of the number of EdU positive cells ([2]; 2% topical, pre-treatment schedule): −59%
- UV-induced skin thickness, statistical effect ([3]; 0.18% (w/w) topical): did not statistically reduce
- UV-induced skin thickness, statistical effect ([3]; 1% (w/w) topical): statistically reduced
- UV-induced skin thickness, statistical effect ([3]; 2% (w/w) topical): statistically reduced
- Skin Thickening: number of mice with observation ([3]; female mice (36 tested), 0.18% brimonidine tartrate gel topical, UVR 600 RBU/week): 32
- Skin Thickening: number of mice with observation ([3]; female mice (36 tested), 1% brimonidine tartrate gel topical, UVR 600 RBU/week): 25
- Skin Thickening: number of mice with observation ([3]; female mice (36 tested), 2% brimonidine tartrate gel topical, UVR 600 RBU/week): 23
- Skin Thickening: total number of observations ([3]; female mice, 0.18% brimonidine tartrate gel topical, UVR 600 RBU/week): 521
- Skin Thickening: total number of observations ([3]; female mice, 1% brimonidine tartrate gel topical, UVR 600 RBU/week): 374
- Skin Thickening: total number of observations ([3]; female mice, 2% brimonidine tartrate gel topical, UVR 600 RBU/week): 381
- Skin Thickening: number of mice with observation ([3]; male mice (36 tested), 0.18% brimonidine tartrate gel topical, UVR 600 RBU/week): 34
- Skin Thickening: number of mice with observation ([3]; male mice (36 tested), 1% brimonidine tartrate gel topical, UVR 600 RBU/week): 27
- Skin Thickening: number of mice with observation ([3]; male mice (36 tested), 2% brimonidine tartrate gel topical, UVR 600 RBU/week): 24
- Skin Thickening: total number of observations ([3]; male mice, 0.18% brimonidine tartrate gel topical, UVR 600 RBU/week): 514
- Skin Thickening: total number of observations ([3]; male mice, 1% brimonidine tartrate gel topical, UVR 600 RBU/week): 392
- Skin Thickening: total number of observations ([3]; male mice, 2% brimonidine tartrate gel topical, UVR 600 RBU/week): 367
- UV-induced skin thickening, effect in words ([3]; topical 0.18%, 1% and 2%, UVR 600 RBU/week): dose-dependent reduction
